Entries after “also recorded” stand apart in the source; their conditions may differ. Like-named read-outs stand apart in the source and are kept apart here. Positions of bridges follow the written chain, without caps; N, C: chain ends. Residues, ends and D or L forms follow the SMILES beside them.
Columns and labels:
[1] = target: T1, hGalR1 (Homo sapiens, UniProt P47211); experiment: SRE-Luc receptor activation assay, hGalR1; assay type: cell-based; conditions: for hGalR1 Emax: Relative to hGAL Emax; for activity on GalR1, in words: full-dose SRE-Luc
T1 sequence (P47211 1-349): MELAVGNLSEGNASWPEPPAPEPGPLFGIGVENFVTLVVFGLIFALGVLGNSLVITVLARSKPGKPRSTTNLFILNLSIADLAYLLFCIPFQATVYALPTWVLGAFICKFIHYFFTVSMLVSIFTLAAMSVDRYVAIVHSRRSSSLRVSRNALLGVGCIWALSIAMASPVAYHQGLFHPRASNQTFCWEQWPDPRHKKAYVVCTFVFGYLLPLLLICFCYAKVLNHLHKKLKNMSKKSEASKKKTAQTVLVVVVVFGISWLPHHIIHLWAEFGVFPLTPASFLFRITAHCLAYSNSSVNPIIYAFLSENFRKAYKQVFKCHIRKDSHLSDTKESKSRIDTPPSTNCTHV

[2] = In vitro serum stability assay (RP-HPLC); assay type: in vitro ADME, rat
Procedure: The serum stability of CSAs was tested using an in vitro assay followed by reverse-phase high-performance liquid chromatography (RP-HPLC) analysis (FIGS. 33-38).
750 μL RPMI medium 1640 (Thermo Fisher Scientific) was mixed with […] rat serum, and incubated at 37° C. for 15 min before adding peptide. The peptide dissolved in water was added into the reaction buffer to make a final concentration of 100 μg/mL. At each time point (5, 15, 30, 60, 120, 240, and 480 min), 100 μL reaction solution were taken, and mixed with 200 μL 6% trichloroacetic acid (TCA, Sigma-Aldrich). The resulting cloudy solution was cooled at 4° C. for 15 min, and centrifuged for 10 mins at 13,000 rpm. The supernatant was then analyzed by RP-HPLC. The extent of intact peptide was calculated based on the peak area and was normalized using a control sample.

[3] = target: T2, hGalR2 (Homo sapiens, UniProt O43603); experiment: SRE-Luc receptor activation assay, hGalR2; assay type: cell-based; conditions: for hGalR2 Emax: Relative to hSPX Emax; for activity on GalR2, in words: full-dose SRE-Luc
T2 construct: host or cells: HEK293
T2 sequence (O43603 1-387): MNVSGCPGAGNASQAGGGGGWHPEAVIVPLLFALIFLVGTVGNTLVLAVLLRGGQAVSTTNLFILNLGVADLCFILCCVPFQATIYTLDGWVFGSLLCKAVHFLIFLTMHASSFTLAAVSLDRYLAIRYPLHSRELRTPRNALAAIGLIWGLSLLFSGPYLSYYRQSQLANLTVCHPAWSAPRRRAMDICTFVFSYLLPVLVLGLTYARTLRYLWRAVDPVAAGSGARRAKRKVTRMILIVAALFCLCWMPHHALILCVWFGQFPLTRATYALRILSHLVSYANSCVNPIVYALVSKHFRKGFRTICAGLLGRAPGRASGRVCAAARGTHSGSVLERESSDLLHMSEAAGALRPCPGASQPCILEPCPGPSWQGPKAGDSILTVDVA

[4] = target: T3, hGalR3 (Homo sapiens, UniProt O60755); experiment: SRE-Luc receptor activation assay, hGalR3; assay type: cell-based; conditions: for hGalR3 Emax: Relative to hSPX Emax; for activity on GalR3, in words: full-dose SRE-Luc
T3 construct: host or cells: HEK293
T3 sequence (O60755 1-368): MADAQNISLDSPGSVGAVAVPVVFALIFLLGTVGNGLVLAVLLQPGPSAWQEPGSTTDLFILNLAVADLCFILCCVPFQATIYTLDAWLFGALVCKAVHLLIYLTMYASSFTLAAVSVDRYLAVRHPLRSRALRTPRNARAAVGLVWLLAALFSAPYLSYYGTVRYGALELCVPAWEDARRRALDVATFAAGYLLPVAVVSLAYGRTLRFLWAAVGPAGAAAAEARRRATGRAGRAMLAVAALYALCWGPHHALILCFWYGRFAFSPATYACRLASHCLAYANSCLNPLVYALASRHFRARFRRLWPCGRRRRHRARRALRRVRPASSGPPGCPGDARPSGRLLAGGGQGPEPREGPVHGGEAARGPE

[5] = tested on: C57BL/6J mice with high-fat-diet (HFD) induced obesity; experiment: Body weight gain in high-fat-diet induced obesity mice, LH101 (Ac) vs hSPX, 18 day treatment; assay type: in vivo; conditions: for food intake: recorded every 3 days
Procedure: Female and male C57BL/6J mice weighing 22-25 g were purchased from the Laboratory Animal Services Center, The Chinese University of Hong Kong, Hong Kong. The animals were fed with rodent diet with 60 kcal % fat (Research Diets, New Brunswick, N.J.) ad libitum with free access to water and were housed in rooms maintained at 22±1° C. with a 12 h light/dark cycle (lights on 6:00-18:00). Animals were constantly acclimated to the facility until the body weight reached no less than 30 g. Then all the diet-induced obese mice were divided into 3 groups randomly for the drug treatment. Mice body weight was daily monitored, and the food intake amount was recorded every 3 days. The Animal Ethics Committee of Hong Kong Baptist University approved all experimental protocols in accordance with “Institutional Guidelines and Animal Ordinance” from Department of Health, Hong Kong Special Administrative Region.

[6] = tested on: male mice (C57BL/6J) with diet-induced obesity (DIO); experiment: Body weight gain in diet-induced obesity mice, LH101, 14-days-treatment; assay type: in vivo; conditions: 25 μg/kg i.p., vs PBS controls
Procedure: Male mice (C57BL/6J) weighing about 22-25 g were purchased from the Laboratory Animal Services Center, The Chinese University of Hong Kong, Hong Kong. The animals were fed with a high fat diet (Research Diets, New Brunswick, N.J.) ad libitum with free access to water and were housed in rooms maintained at 22±1° C. with a 12 h light/dark cycle (lights on 6:00-18:00). Animals were constantly acclimated to the facility until the body weight reached 45-50 g. Then all the diet induced obese mice were divided into 2 groups randomly for the drug treatment. The Animal Ethics Committees of Hong Kong Baptist University, approved all experimental protocols, in accordance with “Institutional Guidelines and Animal Ordinance” from Department of Health, Hong Kong Special Administrative Region.

[7] = HEK293 cells transfected with hGalR1, Gqi, SRE-Luc, 6 h treatment, full-dose
[8] = rat serum in RPMI 1640, 37° C., 100 μg/mL, read-out: serum half-life (t1/2)
[9] = rat, serum, serum half-life (t1/2)
[10] = single dose (1 μM, 6 hours), compared with wild type hSPX
[11] = HEK293 cells transfected with hGalR2, Gqi, SRE-Luc, 6 h treatment, full-dose, read-out: hGalR2 EC50
[12] = HEK293 cells transfected with hGalR3, Gqi, SRE-Luc, 6 h treatment, full-dose, read-out: hGalR3 EC50

SMILES | hGalR1 Emax [1] | half-life at 100 μg/mL [2, 8] | hGalR2 Emax [3] | hGalR3 Emax [4] | activity on GalR3, in words [4] | hGalR1 EC50 [1, 7] | half-life at 100 μg/mL [2, 9] | further results
CC(C)C[C@@H]1NC(=O)[C@H](CC(C)C)NC(=O)[C@H](Cc2ccc(O)cc2)NC(=O)CNC(=O)[C@H](C)NC(=O)[C@H](CO)NC(=O)[C@H](CC(N)=O)NC(=O)[C@H](CC(C)C)NC(=O)[C@H]([C@@H](C)O)NC(=O)[C@H](Cc2c[nH]c3ccccc23)NC(=O)[C@@H](N)CSSC[C@@H](C(=O)N[C@@H](Cc2c[nH]cn2)C(=O)N[C@@H](C)C(=O)N[C@H](C(N)=O)C(C)C)NC(=O)CNC1=O [LH201] (H-CWTLNSAGYLLGCHAV-NH2; disulfide 1-13) | 0.35 | 2.82 h | 1.00 | 0.55 | only able to activate GalR3 at high doses | – | – | EC50 [1, 7]: > 10000 nM; activity on GalR1, in words [1]: lost all activity on GalR1; EC50 [3]: 120 nM; activity on GalR2, in words [3]: kept full activity on GalR2; EC50 [4]: > 10000 nM
CSCC[C@H](NC(=O)[C@H](C)NC(=O)[C@H](CCC(N)=O)NC(=O)[C@@H]1CCCN1C(=O)[C@@H](NC(=O)[C@H](Cc1c[nH]c2ccccc12)NC(=O)[C@@H](N)CC(N)=O)[C@@H](C)O)C(=O)N[C@@H](CC(C)C)C(=O)N[C@@H](Cc1ccc(O)cc1)C(=O)N[C@@H](CC(C)C)C(=O)N[C@@H](CCCCN)C(=O)NCC(=O)N[C@@H](C)C(=O)N[C@@H](CCC(N)=O)C(N)=O [hSPX, reference compound] | N.M. | – | 1.00 | 1.00 | – | N.M. | 1.11 h | area-under-curve (AUC) of body weight gain curve ([5]; 18 day treatment): significant body weight control efficacy; time after which weight gain started to wane ([5]; 18 day treatment): 10 days; food intake [5]: inhibitory effects on food consumption
CC(C)C[C@H](NC(=O)[C@H](CC(C)C)NC(=O)[C@H](Cc1ccc(O)cc1)NC(=O)CNC(=O)[C@H](C)NC(=O)[C@H](CO)NC(=O)[C@H](CC(N)=O)NC(=O)[C@H](CC(C)C)NC(=O)[C@@H](NC(=O)[C@H](Cc1c[nH]c2ccccc12)NC(=O)CN)[C@@H](C)O)C(=O)NCC(=O)N1CCC[C@H]1C(=O)N[C@@H](Cc1c[nH]cn1)C(=O)N[C@@H](C)C(=O)N[C@H](C(N)=O)C(C)C [hGAL (1-16), reference compound] | – | 0.235 h | 1.02 | 0.45 | – | – | – | EC50 [4]: > 10000 nM
CC(=O)N[C@H]1CSSC[C@@H](C(=O)N[C@@H](Cc2c[nH]cn2)C(=O)N[C@@H](C)C(=O)N[C@H](C(N)=O)C(C)C)NC(=O)CNC(=O)[C@H](CC(C)C)NC(=O)[C@H](CC(C)C)NC(=O)[C@H](Cc2ccc(O)cc2)NC(=O)CNC(=O)[C@H](C)NC(=O)[C@H](CO)NC(=O)[C@H](CC(N)=O)NC(=O)[C@H](CC(C)C)NC(=O)[C@H]([C@@H](C)O)NC(=O)[C@H](Cc2c[nH]c3ccccc23)NC1=O [LH201 (Ac)] (Ac-CWTLNSAGYLLGCHAV-NH2; disulfide 1-13) | 0.22 | 0.865 h | 1.16 | 0.20 | No activity | N.M. | – | activity on GalR1, in words [1]: No activity; EC50 [3]: 480 nM; hGalR3 EC50 ([4]; HEK293 cells transfected with hGalR3, Gqi, SRE-Luc, 6 h treatment, full-dose): N.M.
CSCC[C@H](NC(=O)[C@H](C)NC(=O)[C@H](CCC(N)=O)NC(=O)[C@H](CS)NC(=O)[C@@H](NC(=O)[C@H](Cc1c[nH]c2ccccc12)NC(=O)[C@@H](N)CC(N)=O)[C@@H](C)O)C(=O)N[C@@H](CC(C)C)C(=O)N[C@@H](Cc1ccc(O)cc1)C(=O)N[C@@H](CC(C)C)C(=O)N[C@@H](CCCCN)C(=O)NCC(=O)N[C@@H](C)C(=O)N[C@@H](CCC(N)=O)C(N)=O [hSPX (C4)] (H-NWTCQAMLYLKGAQ-NH2; N-terminus assumed) | N.M. | – | 0.98 | 0.91 | little effect on the potency | N.M. | – | activity on GalR2, in words [3]: little effect on the potency; effect of cysteine mutation on receptor activation of GalR2 [3, 10]: minimum effects; effect of cysteine mutation on receptor activation of GalR3 [4, 10]: minimum effects
CSCC[C@@H]1NC(=O)[C@H](C)NC(=O)[C@H](CCC(N)=O)NC(=O)[C@@H]2CCCN2C(=O)[C@H]([C@@H](C)O)NC(=O)[C@H](Cc2c[nH]c3ccccc23)NC(=O)[C@@H](N)CSSC[C@@H](C(=O)N[C@@H](CCC(N)=O)C(N)=O)NC(=O)CNC(=O)[C@H](CCCCN)NC(=O)[C@H](CC(C)C)NC(=O)[C@H](Cc2ccc(O)cc2)NC(=O)[C@H](CC(C)C)NC1=O [LH101] (H-CWTPQAMLYLKGCQ-NH2; disulfide 1-13) | N.M. | – | 1.09 | 1.04 | – | N.M. | 5.93 h | fold enhancement of half-life ([2]; rat): 5.3 fold; remaining at 8 h, 100 μg/mL ([2]; rat, serum): 46%; EC50 [3, 11]: 1190 nM; body weight gain [6]: significantly suppressed the body weight gain; also recorded: suppressed mice body weight gain; also recorded: does inhibit body weight gain; EC50 [4, 12]: 1560 nM
CSCC[C@@H]1NC(=O)[C@H](C)NC(=O)[C@H](CCC(N)=O)NC(=O)[C@@H]2CCCN2C(=O)[C@H]([C@@H](C)O)NC(=O)[C@H](Cc2c[nH]c3ccccc23)NC(=O)[C@@H](NC(C)=O)CSSC[C@@H](C(=O)N[C@@H](CCC(N)=O)C(N)=O)NC(=O)CNC(=O)[C@H](CCCCN)NC(=O)[C@H](CC(C)C)NC(=O)[C@H](Cc2ccc(O)cc2)NC(=O)[C@H](CC(C)C)NC1=O [LH101 (Ac)] (Ac-CWTPQAMLYLKGCQ-NH2; disulfide 1-13) | N.M. | – | 0.97 | 1.00 | – | N.M. | 32.9 h | body weight gain ([5]; 25 μg/kg i.p., 18 day treatment, vs PBS controls): significantly suppressed the body weight gain; area-under-curve (AUC) of body weight gain curve ([5]; 18 day treatment): significant body weight control efficacy; time after which weight gain started to wane ([5]; 18 day treatment): 8 days; food intake [5]: inhibitory effects on food consumption; fold enhancement of half-life ([2]; rat): 29.1 fold; half-life at 100 μg/mL ([2]; rat, serum, half-life time in serum): > 24 h; EC50 [3, 11]: 380 nM; EC50 [4, 12]: 390 nM

From patent US10376555B2, “Identification of cyclic peptide agonists of galanin receptor 2 and 3 guided by spexin solution structure” (Hong Kong Baptist University, priority 2017, dated 2019)
